These results are taken from patent US10987350B2, “Method for treating post-traumatic stress disorder” (priority 2017, dated 2021).

The conditions of data set [1]: compared with naltrexone; cited from earlier work.
Data set [2] concerns combat veterans diagnosed with post-traumatic stress disorder (PTSD). Particulars: 18 combat veterans with PTSD; 1 mg twice a day up to 200 mg twice a day; cited from earlier work.
In a further data set the test system is liver. As to conditions: compared with naltrexone; cited from earlier work.
Data set [3] has as its system patient diagnosed with post-traumatic stress disorder (PTSD). Kind of data set: higher dose titration schedule of nalmefene in patients diagnosed with PTSD. It is filed as in vivo, human. Here is the method: One object of the subject invention is to provide improved benefit to patients diagnosed with PTSD, by employing a higher dose titration schedule for the administration of nalmefene. In accordance with the nalmefene dosing titration schedule of the subject invention, nalmefene is administered at a higher initial dose than the dosing schedule published in the pilot study, and administering nalmefene at the same, higher dose increments at regular intervals described above. Specifically, the subject invention comprises administering nalmefene orally to a PTSD patient at an initial dose of 100 milligrams per day, preferably using 50 milligram doses, twice a day, with increases every 3-4 days of 100 mg per day (50 milligrams twice a day), not to exceed 1000 mg per day (500 mg twice a day).
The subject invention comprises administering, on a dosing titration schedule, nalmefene, to a patient diagnosed with post-traumatic stress disorder (PTSD), using • a starting dose of 100 mg per day, preferably in divided doses of 50 mg twice per day; and • increasing the dose by 100-150 mg per day, every 2-5 days, up to a maximum daily dose of 1000 mg, per day.
Each increase is preferably 100 mg per day, at a divided dose of 50 mg twice per day.
An optimum dose of nalmefene, wherein PTSD symptoms are reduced or reversed, can be achieved within 2-3 weeks for individuals diagnosed with PTSD. The reduced or reversed. PTSD symptoms are based on both clinical observation of the patient and on reporting of reduced or reversed symptoms by the patient.

For data set [4], the system named is respiratory depression produced by opiate overdose. Particulars: cited from earlier work.
Where [5] appears, read: dosing administration schedule of the invention.

With `C=C1CC[C@@]2(O)[C@H]3Cc4ccc(O)c5c4[C@@]2(CCN3CC2CC2)[C@H]1O5` [nalmefene], the “half-life relative to naltrexone” value in data set [1] is “longer half-life”. For the same compound, in data set [2], the “core symptoms of PTSD (nightmares, intrusive thoughts, flashbacks, avoidance, dissociative amnesia, mistrust, hyper arousal)” value is given as “significantly improve all core symptoms of PTSD”; the “symptom of emotional numbness” value was “significantly reduce, and in some cases remit”. Also, the dose-dependent liver toxicity entry with liver was “no observed dose-dependent liver toxicity”. Also, the “adverse reaction with large dose increments” value in data set [3] (dose increments significantly greater than 50 milligrams twice a day) is “frequent and intense mood swings”. Besides, in data set [3] (setting [5]), the “occurrence of fluctuating mood states (anxiety, hostility and rage, depression, paranoia) with dose increases” value is given as “successful in avoiding the occurrence of fluctuating mood states”; the “time to stabilization of mental state of the PTSD patient” value is given as “stabilized in a much briefer period of time”. Also, the “emergence of opiate withdrawal symptoms” value in data set [3] (higher dose of at least 50 mgs twice a day) is on record as “unexpectedly bypassed the emergence of opiate withdrawal symptoms”. The “time to achieve optimum dose, wherein PTSD symptoms are reduced or reversed” value in data set [3] (higher dose titration schedule, clinical observation and patient reporting) is 2-3 weeks. The “additional benefit in opiate overdose at higher doses” value in data set [4] (intravenous doses greater than 1.5 mg) is recorded as “do not appear to give any greater benefit”. Also, in data set [4] (intravenous doses), the “counteracting respiratory depression produced by opiate overdose” value is listed as “effective”.
